How the values were obtained:
[1] = target: T1, hM1 (human Muscarinic receptor subtype 1) (Homo sapiens, UniProt P11229); assay: Human M1 calcium mobilization FLIPR assay; format: cell-based; settings: CHO cells expressing hM1, intracellular Ca2+ release
T1 construct: expressed in transfected cells; host or cells: CHO cells (Chinese hamster ovary cells, ATCC)
T1 sequence (P11229 1-460): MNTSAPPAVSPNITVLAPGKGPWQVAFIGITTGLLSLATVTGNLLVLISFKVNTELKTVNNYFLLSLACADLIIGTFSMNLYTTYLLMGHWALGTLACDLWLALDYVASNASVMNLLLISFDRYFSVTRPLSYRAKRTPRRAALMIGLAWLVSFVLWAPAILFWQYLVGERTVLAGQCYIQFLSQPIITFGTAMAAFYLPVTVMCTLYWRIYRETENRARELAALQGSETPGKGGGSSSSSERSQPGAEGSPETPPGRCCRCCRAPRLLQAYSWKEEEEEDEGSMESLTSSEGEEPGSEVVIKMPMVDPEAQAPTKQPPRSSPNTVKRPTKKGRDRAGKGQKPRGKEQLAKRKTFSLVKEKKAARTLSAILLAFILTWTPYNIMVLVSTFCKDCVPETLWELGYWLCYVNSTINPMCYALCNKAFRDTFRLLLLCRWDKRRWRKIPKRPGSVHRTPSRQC
Procedure: The compound activity in the present invention (EC50 or IC50) is measured using a 384 plate-based imaging assay that monitors drug induced intracellular Ca^2+ release in whole cells. Activation of hM1 (human Muscarinic receptor subtype 1, gene bank access NM_000738), rM1 (rat Muscarinic receptor subtype 1, gene bank access NM_080773), hM3 (human Muscarinic receptor subtype 3, gene bank access NM_000740NM_000740) and hM5 (human Muscarinic receptor subtype 5, gene bank access NM_0121258), receptors expressed in CHO cells (Chinese hamster ovary cells, ATCC) is quantified in a Molecular Devices FLIPR II™ instrument as an increase in fluorescent signal. Inhibition of hM3 and hM5 by compounds is determined by the decrease in fluorescent signal in response to 2 nM acetylcholine activation.
Prior to experiment, the cell culture medium is removed from the plates by inversion. […] Plates are incubated at 37° C. for 60 minutes prior to start the experiment. The incubation is terminated by washing the cells four times in assay buffer, leaving a residual 25 μl buffer per well. Cell plates are then transferred to the FLIPR, ready for compound additions.
The day of experiment, acetylcholine and compounds are diluted in assay buffer in three-fold concentration range (10 points serial dilution) for addition by FLIPR instrument. For all calcium assays, a baseline reading is taken for 10 seconds followed by the addition of 12.5 μl of compounds, resulting in a total well volume of 37.5 μl. Data is collected every second for 60 pictures and then every 6 seconds for 20 pictures prior to the addition of agonist. For hM3 and hM5, before agonist addition, a second baseline reading is taken for 10 seconds followed by the addition of 12.5 μl of agonist or buffer, producing a final volume of 50 μl. After agonist stimulation, the FLIPR continues to collect data every second for 60 pictures and then every 6 seconds for 20 pictures. The fluorescence emission is read using filter 1 (emission 510-570 nm) by the FLIPR on board CCD camera.
Calcium mobilization output data are calculated as the maximal relative fluorescence unit (RFU) minus the minimal value for both compound and agonist reading frame (except for hM1 and rM1 using only the maximal RFU). Data are analyzed using sigmoidal fits of a non-linear curve-fitting program (XLfit version 4.2.2 Excel add-in version 4.2.2 build 18 math 1Q version 2.1.2 build 18). All pEC50 and pIC50 values are reported as arithmetic means±standard error of mean of ‘n’ independent experiments.

[2] = system: SNL rats (heat hyperalgesia); assay: Rat SNL heat hyperalgesia assay; format: in vivo; settings: sc, male Sprague Dawley SNL rats, paw withdrawal latency, morphine s.c. 30 min before testing, example 2 per os 60 min before testing, combination ratio example 2:morphine 1:1.56
Procedure: Rats undergo spinal nerve ligation surgery as described in Kim and Chung (1992) (reference 1). Briefly, rats are anesthetized with isoflurane, the left L5 and L6 are isolated and tightly ligated with 4-0 silk thread. The wound is closed by suturing and applying tissue adhesive. Compound testing is performed at day 9 to day 36 post-surgery.
For behavioral testing, the animals are acclimatized to the test room environment for a minimum of 30 min. In order to assess the degree of hyperalgesia, the animals are placed on a glass surface (maintained at 30° C.), and a heat-source is focused onto the plantar surface of the left paw. The time from the initiation of the heat until the animal withdraws the paw is recorded. Each animal is tested twice (with an interval of 10 min between the two tests). A decrease in Paw Withdrawal Latency (PWL, average of the two tests) relative to naïve animals indicates a hyperalgesic state. The rats with a PWL of at least 2 seconds less than average PWL of Naïve group are selected for compound testing. […]
In order to assess the degree of heat hyperalgesia, the rats were individually placed in Plexiglas boxes on the glass surface (maintained at 30° C.) of a paw thermal stimulator system (Model 390, series 8, IITC Life Science, Woodland Hills, USA) and allowed to acclimate for 30 min. […] Paw withdrawal latencies (PWLs) were calculated as the mean of the two values.

SMILES	EC50 [1] [nM]	ED50 [2] [µmol/kg]
CC#CCOC(=O)N1CCC(C)(N2CCC(N3C(=O)N[C@H]4CCCC[C@@H]43)CC2)C1 (single isomer, unassigned) [Example 20]	257	–
CN1CC[C@]23c4c5ccc(O)c4O[C@H]2[C@@H](O)C=C[C@H]3[C@H]1C5 [Morphine, reference compound]	–	3.8

Source: patent publication US8119661B2, “Piperidine derivatives and their use as muscarinic receptor modulators” (AstraZeneca AB, priority 2007, dated 2012)
